# Test system: 454973-116-R2-J3-PDC spheroids, viability, % test/control
# Assay: Anticancer human tumor 454973-116-R2-J3-PDC patient-derived pancreatic carcinoma cell line growth inhibition [GQUAD]
# Settings: second compound 0.0316 µM; first compound 3.16 µM; stronger effect = lower value; spheroids with HUVEC and MSC
# Text: DNA G-quadruplex Stabilizer Agents in Combinations in Complex Spheroids
# A high-throughput screen of multi-cell type tumor spheroids was designed to identify active combinations of DNA G-quadruplex stabilizer agents and targeted small molecules. Complex spheroids include a stromal component modeled by human endothelial cells (HUVEC) and fibroblasts modeled by human mesenchymal stem cells (MSCs). The concentration ranges selected for each drug and investigational agent were based upon clinically achievable concentrations if the clinical Cmax of the agent was known.
# Compounds. The drugs and investigational agents: pidnarulex (CX-5461; NSC782164), APTO-253 (NSC789042), BRACO-19 (NSC847499), peposertib (NSC802822), ceralasertib (NSC780249), elimusertib (NSC800525), camonsertib (NSC841442), AZD-1390 (NSC803789), olaparib (NSC753686), talazoparib (NSC767125), ART-558 (NSC835418), sotorasib (NSC818433), MRTX-1133 (NSC836407), SN-38 (NSC673596), topotecan (NSC609699), etoposide (NSC141540), doxorubicin (NSC123127), gemcitabine (NSC613327), 5-fluorouracil (NSC19893), paclitaxel (NSC125973), vemurafenib (NSC761431), panobinostat (NSC761190), R-306465 (JNJ-16241199; NSC773264), adavosertib (NSC754352), TP-3654 (NSC805149), carboplatin (NSC241240), KSQ-4279 (NSC840948), and staurosporine (NSC755774) were obtained from the National Cancer Institute (NCI) Developmental Therapeutics Program Chemical Repository (34). The FDA-approved anticancer drug set is available from the NCI Developmental Therapeutics Program. […] The stock solutions were prepared in dimethyl sulfoxide (DMSO, Sigma-Aldrich, St. Louis, MO, cat. D2650) at 800-fold the tested concentration and stored at -70 degrees C prior to their use. All drugs and investigational agents were tested over a range starting from a high concentration at or near the clinical Cmax and decreasing in half-log increments. If the clinical Cmax for an agent had not been determined, the highest concentration tested was 10 microM.
# 2.3 Cell Culture. All cells were maintained in an incubator at 37 degrees C and 5% CO2 with 95% humidity. The PDC lines were cultured according to standard operating procedures established by the NCI PDMR. All PDCs were thawed and cultured in Matrigel-coated flasks prepared with a working solution of 1X Ham's F-12 nutrient mix, without supplementation (Invitrogen, cat. 11765054), 100 U/mL penicillin-streptomycin (Invitrogen, cat. 15140122), and 2.5% Matrigel (Corning Inc., cat. 354248) for the first three passages. The 857933-349-R-J2-PDC line was cultured in 6C/Colon 1B media, which includes advanced DMEM/F-12 (Thermo Fisher Scientific, cat. 12634028), 10 mM HEPES (Thermo Fisher Scientific, cat. 15630080), 1X GlutaMAX supplement (Thermo Fisher Scientific, cat. 35050061), 0.1 mg/mL primocin (InvivoGen, cat. ant-pm-2), 10% defined fetal bovine serum, heat inactivated (HyClone Laboratories Inc., cat. SH30070.03HI), 50% L-WRN conditioned media (ATCC, cat. CRL-3276), 1.25 mM N-Acetyl-L-cysteine (Sigma-Aldrich, cat. A9165), 10 mM nicotinamide (Sigma-Aldrich, cat. N0636), 1X B-27 supplement (Thermo Fisher Scientific, cat. 17504044), 1X N-2 supplement (Thermo Fisher Scientific, cat. 17502048), 10 microM Y-27632 dihydrochloride (Tocris Bioscience, cat. 1254), and 50 ng/mL human EGF recombinant protein (Thermo Fisher Scientific, cat. PHG0311). The 485176-168-R4-J1-PDC line was cultured in Panc media, which includes all 6C/Colon 1B media components plus 100 ng/mL human FGF-10 (Thermo Fisher Scientific, cat. 100-26), 500 nM SB-431542 (Selleckchem, cat. S1067), and gastrin (Tocris, cat. 3006).
# […]
# 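Note: spheroids exposed to compounds for seven days.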
row,Compound,"viability, T/C"
1,Nc1ccn(C2OC(CO)C(O)C2(F)F)c(=O)n1 (stereo unspecified) + CN(C)c1ccc(Nc2c3ccc(NC(=O)CCN4CCCC4)cc3nc3cc(NC(=O)CCN4CCCC4)ccc23)cc1,14.7%
2,O=c1[nH]cc(F)c(=O)[nH]1 + CN(C)c1ccc(Nc2c3ccc(NC(=O)CCN4CCCC4)cc3nc3cc(NC(=O)CCN4CCCC4)ccc23)cc1,32.1%

# Same assay, conditions: second compound 0.0316 µM; first compound 10 µM; stronger effect = lower value; spheroids with HUVEC and MSC
row,Compound,"viability, T/C"
1,C#Cc1c(F)ccc2cc(O)cc(-c3ncc4c(N5CC6CCC(C5)N6)nc(OCC56CCCN5CC(F)C6)nc4c3F)c12 (stereo unspecified) + CN(C)c1ccc(Nc2c3ccc(NC(=O)CCN4CCCC4)cc3nc3cc(NC(=O)CCN4CCCC4)ccc23)cc1,15.8%
2,CC(C)n1c(=O)n(C)c2cnc3cc(F)c(-c4ccc(OCCCN5CCCCC5)nc4)cc3c21 + CN(C)c1ccc(Nc2c3ccc(NC(=O)CCN4CCCC4)cc3nc3cc(NC(=O)CCN4CCCC4)ccc23)cc1,73.5%
3,Nc1ccn(C2OC(CO)C(O)C2(F)F)c(=O)n1 (stereo unspecified) + CN(C)c1ccc(Nc2c3ccc(NC(=O)CCN4CCCC4)cc3nc3cc(NC(=O)CCN4CCCC4)ccc23)cc1,15.6%
4,O=c1[nH]cc(F)c(=O)[nH]1 + CN(C)c1ccc(Nc2c3ccc(NC(=O)CCN4CCCC4)cc3nc3cc(NC(=O)CCN4CCCC4)ccc23)cc1,30.2%

# Same assay, conditions: second compound 0.1 µM; first compound 0.0316 µM; stronger effect = lower value; spheroids with HUVEC and MSC
row,Compound,"viability, T/C"
1,C#Cc1c(F)ccc2cc(O)cc(-c3ncc4c(N5CC6CCC(C5)N6)nc(OCC56CCCN5CC(F)C6)nc4c3F)c12 (stereo unspecified) + CN(C)c1ccc(Nc2c3ccc(NC(=O)CCN4CCCC4)cc3nc3cc(NC(=O)CCN4CCCC4)ccc23)cc1,56.4%
2,CC(C)n1c(=O)n(C)c2cnc3cc(F)c(-c4ccc(OCCCN5CCCCC5)nc4)cc3c21 + CN(C)c1ccc(Nc2c3ccc(NC(=O)CCN4CCCC4)cc3nc3cc(NC(=O)CCN4CCCC4)ccc23)cc1,103%
3,Nc1ccn(C2OC(CO)C(O)C2(F)F)c(=O)n1 (stereo unspecified) + CN(C)c1ccc(Nc2c3ccc(NC(=O)CCN4CCCC4)cc3nc3cc(NC(=O)CCN4CCCC4)ccc23)cc1,20.7%
4,O=c1[nH]cc(F)c(=O)[nH]1 + CN(C)c1ccc(Nc2c3ccc(NC(=O)CCN4CCCC4)cc3nc3cc(NC(=O)CCN4CCCC4)ccc23)cc1,106%

# Same assay, conditions: second compound 0.1 µM; first compound 0.1 µM; stronger effect = lower value; spheroids with HUVEC and MSC
row,Compound,"viability, T/C"
1,C#Cc1c(F)ccc2cc(O)cc(-c3ncc4c(N5CC6CCC(C5)N6)nc(OCC56CCCN5CC(F)C6)nc4c3F)c12 (stereo unspecified) + CN(C)c1ccc(Nc2c3ccc(NC(=O)CCN4CCCC4)cc3nc3cc(NC(=O)CCN4CCCC4)ccc23)cc1,41.9%
2,CC(C)n1c(=O)n(C)c2cnc3cc(F)c(-c4ccc(OCCCN5CCCCC5)nc4)cc3c21 + CN(C)c1ccc(Nc2c3ccc(NC(=O)CCN4CCCC4)cc3nc3cc(NC(=O)CCN4CCCC4)ccc23)cc1,118%
3,Nc1ccn(C2OC(CO)C(O)C2(F)F)c(=O)n1 (stereo unspecified) + CN(C)c1ccc(Nc2c3ccc(NC(=O)CCN4CCCC4)cc3nc3cc(NC(=O)CCN4CCCC4)ccc23)cc1,13.5%
4,O=c1[nH]cc(F)c(=O)[nH]1 + CN(C)c1ccc(Nc2c3ccc(NC(=O)CCN4CCCC4)cc3nc3cc(NC(=O)CCN4CCCC4)ccc23)cc1,95.6%

# Same assay, conditions: second compound 0.1 µM; first compound 0.316 µM; stronger effect = lower value; spheroids with HUVEC and MSC
row,Compound,"viability, T/C"
1,C#Cc1c(F)ccc2cc(O)cc(-c3ncc4c(N5CC6CCC(C5)N6)nc(OCC56CCCN5CC(F)C6)nc4c3F)c12 (stereo unspecified) + CN(C)c1ccc(Nc2c3ccc(NC(=O)CCN4CCCC4)cc3nc3cc(NC(=O)CCN4CCCC4)ccc23)cc1,24.3%
2,CC(C)n1c(=O)n(C)c2cnc3cc(F)c(-c4ccc(OCCCN5CCCCC5)nc4)cc3c21 + CN(C)c1ccc(Nc2c3ccc(NC(=O)CCN4CCCC4)cc3nc3cc(NC(=O)CCN4CCCC4)ccc23)cc1,95.2%
3,Nc1ccn(C2OC(CO)C(O)C2(F)F)c(=O)n1 (stereo unspecified) + CN(C)c1ccc(Nc2c3ccc(NC(=O)CCN4CCCC4)cc3nc3cc(NC(=O)CCN4CCCC4)ccc23)cc1,14.9%
4,O=c1[nH]cc(F)c(=O)[nH]1 + CN(C)c1ccc(Nc2c3ccc(NC(=O)CCN4CCCC4)cc3nc3cc(NC(=O)CCN4CCCC4)ccc23)cc1,103%

# Same assay, conditions: second compound 0.1 µM; first compound 1 µM; stronger effect = lower value; spheroids with HUVEC and MSC
row,Compound,"viability, T/C"
1,C#Cc1c(F)ccc2cc(O)cc(-c3ncc4c(N5CC6CCC(C5)N6)nc(OCC56CCCN5CC(F)C6)nc4c3F)c12 (stereo unspecified) + CN(C)c1ccc(Nc2c3ccc(NC(=O)CCN4CCCC4)cc3nc3cc(NC(=O)CCN4CCCC4)ccc23)cc1,22.4%
2,CC(C)n1c(=O)n(C)c2cnc3cc(F)c(-c4ccc(OCCCN5CCCCC5)nc4)cc3c21 + CN(C)c1ccc(Nc2c3ccc(NC(=O)CCN4CCCC4)cc3nc3cc(NC(=O)CCN4CCCC4)ccc23)cc1,97.1%
3,Nc1ccn(C2OC(CO)C(O)C2(F)F)c(=O)n1 (stereo unspecified) + CN(C)c1ccc(Nc2c3ccc(NC(=O)CCN4CCCC4)cc3nc3cc(NC(=O)CCN4CCCC4)ccc23)cc1,16.6%

# From PubChem BioAssay AID2060508 (Molecular Pharmacology Branch, DTP, NCI, 2025)
